Measured values published in patent US20060142312A1, “C6-aryl and heteroaryl substituted pyrido[2,3-D] pyrimidin-7-ones” (PFIZER INC, priority 2004, published 2006).
Structures can show the parent of a compound that is named as a salt.

SMILES | melting point
Cc1ccccc1Cc1cc2cnc(NCCCN3CCOCC3)nc2n(C2CCCC2)c1=O [Example 74, 8-Cyclopentyl-6-(2-methyl-benzyl)-2-(3-morpholin-4-yl-propylamino)-8H-pyrido[2,3-d]pyrimidin-7-one] | 118 to 119 °C
CN(C)C1CCC(Nc2ncc3cc(Cc4nccs4)c(=O)n(C4CCCC4)c3n2)CC1 (stereo not drawn) [Example 87, 8-Cyclopentyl-2-(4-dimethylamino-cyclohexylamino)-6-thiazol-2-ylmethyl-8H-pyrido[2,3-d]pyrimidin-7-one] | 154 to 157 °C
CNc1ncc2cc(Cc3ccccc3)c(=O)n(C3CCCC3)c2n1 [Example 47, 6-Benzyl-8-cyclopentyl-2-methylamino-8H-pyrido[2,3-d]pyrimidin-7-one] | 144 to 146 °C
Cc1ccccc1Cc1cc2cnc(NC3CCC(N(C)C)CC3)nc2n(C2CCCC2)c1=O (stereo not drawn) [Example 64, 8-Cyclopentyl-2-(4-dimethylamino-cyclohexylamino)-6-(2-methyl-benzyl)-8H-pyrido[2,3-d]pyrimidin-7-one] | 178 to 183 °C
O=C(O)CCNc1ncc2cc(Cc3ccccc3)c(=O)n(C3CCCC3)c2n1 [Example 52, 3-(6-Benzyl-8-cyclopentyl-7-oxo-7,8-dihydro-pyrido[2,3-d]pyrimidin-2-ylamino)-propionic acid] | 164 to 170 °C
O=c1c(Cc2ccccc2)cc2cnc(NC3CCCCC3)nc2n1C1CCCC1 [Example 41, 6-Benzyl-2-cyclohexylamino-8-cyclopentyl-8H-pyrido[2,3-d]pyrimidin-7-one] | 128 to 130 °C
CCCN1CCC(Nc2ncc3cc(Cc4ccc(CC)cc4)c(=O)n(C4CCCC4)c3n2)CC1 [Example 62, 8-Cyclopentyl-6-(4-ethyl-benzyl)-2-(1-propyl-piperidin-4-ylamino)-8H-pyrido[2,3-d]pyrimidin-one] | 151 to 153 °C
O=c1c(Cc2ccccc2)cc2cnc(Nc3ccccc3)nc2n1C1CCCC1 [Example 44, 6-Benzyl-8-cyclopentyl-2-phenylamino-8H-pyrido[2,3-d]pyrimidin-7-one] | 161 to 163 °C
Cc1ccc(Cc2cc3cnc(Nc4ccc(N5CCOC5=O)cc4)nc3n(C3CCCC3)c2=O)cc1 [Example 103, 8-Cyclopentyl-6-(4-methyl-benzyl)-2-[4-(2-oxo-oxazolidin-3-yl)-phenylamino]-8H-pyrido[2,3-d]pyrimidin-7-one] | 289.2 to 290 °C
Cc1ccccc1Cc1cc2cnc(Nc3ccc(N4CCNCC4)cc3)nc2n(C2CCCC2)c1=O [Example 69, 8-Cyclopentyl-6-(2-methyl-benzyl)-2-(4-piperazin-1-yl-phenylamino)-8H-pyrido[2,3-d]pyrimidin-7-one] | 210 °C
CCCN1CCC(Nc2ncc3cc(Cc4ccccc4)c(=O)n(C4CCCC4)c3n2)CC1 [Example 45, 6-Benzyl-8-cyclopentyl-2-(1-propyl-piperidin-4-ylamino)-8H-pyrido[2,3-d]pyrimidin-7-one] | 143 to 145 °C
CCCN1CCC(Nc2ncc3cc(Cc4ccc(C(C)C)cc4)c(=O)n(C4CCCC4)c3n2)CC1 [Example 63, 8-Cyclopentyl-6-(4-isopropyl-benzyl)-2-(1-propyl-piperidin-4-ylamino)-8H-pyrido[2,3-d]pyrimidin-7-one] | 156 to 160 °C
O=c1c(Cc2ccccn2)cc2cnc(NC3CCNCC3)nc2n1C1CCCC1 (as salt: TFA) [Example 26, 8-Cyclopentyl-2-(piperidin-4-ylamino)-6-pyridin-2-ylmethyl-8H-pyrido[2,3-d]pyrimidin-7-one] | 138 to 140 °C
CCc1ccc(Cc2cc3cnc(NC4CCC(N(C)C)CC4)nc3n(C3CCCC3)c2=O)cc1 (stereo not drawn) [Example 67, 8-Cyclopentyl-2-(4-dimethylamino-cyclohexylamino)-6-(4-ethyl-benzyl)-8H-pyrido[2,3-d]pyrimidin-7-one] | 175 to 181 °C
Cc1ccc(Cc2cc3cnc(NCCCN4CCN(C)CC4)nc3n(C3CCCC3)c2=O)cc1 [Example 78, 8-Cyclopentyl-6-(4-methyl-benzyl)-2-[3-(4-methyl-piperazin-1-yl)-propylamino]-8H-pyrido[2,3-d]pyrimidin-7-one] | 123 to 124 °C
CN(C)C1CCC(Nc2ncc3cc(Cc4ccccc4)c(=O)n(C4CCCC4)c3n2)CC1 (stereo not drawn) [Example 40, 6-Benzyl-8-cyclopentyl-2-(4-dimethylamino-cyclohexylamino)-8H-pyrido[2,3-d]pyrimidin-7-one] | 167 to 170 °C
CCCN1CCC(Nc2ncc3cc(Cc4cccc(C)c4)c(=O)n(C4CCCC4)c3n2)CC1 [Example 61, 8-Cyclopentyl-6-(3-methyl-benzyl)-2-(1-propyl-piperidin-4-ylamino)-8H-pyrido[2,3-d]pyrimidin-7-one] | 118 to 120 °C
Cc1ccc(Cc2cc3cnc(NC4CCC(N(C)C)CC4)nc3n(C3CCCC3)c2=O)cc1 (stereo not drawn) [Example 66, 8-Cyclopentyl-2-(4-dimethylamino-cyclohexylamino)-6-(4-methyl-benzyl)-8H-pyrido[2,3-d]pyrimidin-7-one] | 179 to 184 °C

SMILES | melting point
CC(C)c1ccc(Cc2cc3cnc(NC4CCC(N(C)C)CC4)nc3n(C3CCCC3)c2=O)cc1 (stereo not drawn) [Example 68, 8-Cyclopentyl-2-(4-dimethylamino-cyclohexylamino)-6-(4-isopropyl-benzyl)-8H-pyrido[2,3-d]pyrimidin-7-one] | 174 to 181 °C
O=c1c(Cc2ccccc2)cc2cnc(NCCc3cnc[nH]3)nc2n1C1CCCC1 [Example 51, 6-Benzyl-8-cyclopentyl-2-[2-(3H-imidazol-4-yl)-ethylamino]-8H-pyrido[2,3-d]pyrimidin-7-one] | 163 to 165 °C
CC(C)S(=O)(=O)N1CCC(Nc2ncc3cc(Cc4ccccc4)c(=O)n(C4CCCC4)c3n2)CC1 [Example 34, 6-Benzyl-8-cyclopentyl-2-[1-(propane-2-sulfonyl)-piperidin-4-ylamino]-8H-pyrido[2,3-d]pyrimidin-7-one] | 210 to 212 °C
CCc1ccc(Cc2cc3cnc(Nc4ccc(N5CCNCC5)cc4)nc3n(C3CCCC3)c2=O)cc1 [Example 71, 8-Cyclopentyl-6-(4-ethyl-benzyl)-2-(4-piperazin-1-yl-phenylamino)-8H-pyrido[2,3-d]pyrimidin-7-one] | 175 °C
Cc1ccccc1Cc1cc2cnc(NCCCN3CCN(C)CC3)nc2n(C2CCCC2)c1=O [Example 77, 8-Cyclopentyl-6-(2-methyl-benzyl)-2-[3-(4-methyl-piperazin-1-yl)-propylamino]-8H-pyrido[2,3-d]pyrimidin-7-one] | > 45 °C
CS(=O)(=O)N1CCC(Nc2ncc3cc(Cc4ccccc4)c(=O)n(C4CCCC4)c3n2)CC1 [Example 54, 6-Benzyl-8-cyclopentyl-2-(1-methanesulfonyl-piperidin-4-ylamino)-8H-pyrido[2,3-d]pyrimidin-7-one] | 243 to 245 °C
CN(CCO)c1ncc2cc(Cc3ccccc3)c(=O)n(C3CCCC3)c2n1 [Example 48, 6-Benzyl-8-cyclopentyl-2-[(2-hydroxy-ethyl)-methyl-amino]-8H-pyrido[2,3-d]pyrimidin-7-one] | < 60 °C
O=c1c(Cc2ccccc2)cc2cnc(NCCO)nc2n1C1CCCC1 [Example 42, 6-Benzyl-8-cyclopentyl-2-(2-hydroxy-ethylamino)-8H-pyrido[2,3-d]pyrimidin-7-one] | 177 to 179 °C
CCCN1CCC(Nc2ncc3cc(Cc4ccc(C)cc4)c(=O)n(C4CCCC4)c3n2)CC1 [Example 59, 8-Cyclopentyl-6-(4-methyl-benzyl)-2-(1-propyl-piperidin-4-ylamino)-8H-pyrido[2,3-d]pyrimidin-7-one] | 154 to 155 °C
Cc1c(Cc2ccccc2)c(=O)n(C2CCCC2)c2nc(Nc3ccc(N4CCNCC4)cc3)ncc12 [Example 29, 6-Benzyl-8-cyclopentyl-5-methyl-2-(4-piperazin-1-yl-phenylamino)-8H-pyrido[2,3-d]pyrimidin-7-one] | 114 °C
CCCN1CCC(Nc2ncc3cc(Cc4ccccc4C)c(=O)n(C4CCCC4)c3n2)CC1 [Example 60, 8-Cyclopentyl-6-(2-methyl-benzyl)-2-(1-propyl-piperidin-4-ylamino)-8H-pyrido[2,3-d]pyrimidin-7-one] | 149 to 151 °C
CN1CCN(S(=O)(=O)N2CCC(Nc3ncc4cc(Cc5ccccc5)c(=O)n(C5CCCC5)c4n3)CC2)CC1 [Example 33, 6-Benzyl-8-cyclopentyl-2-[1-(4-methyl-piperazine-1-sulfonyl)-piperidin-4-ylamino]-8H-pyrido[2,3-d]pyrimidin-7-one] | 182 to 183 °C
CN(C)CCCCNc1ncc2cc(Cc3ccccn3)c(=O)n(C3CCCC3)c2n1 [Example 89, 8-Cyclopentyl-2-(4-dimethylamino-butylamino)-6-pyridin-2-ylmethyl-8H-pyrido[2,3-d]pyrimidin-7-one] | 105 to 107 °C
CN(C)CCCCNc1ncc2cc(Cc3nccs3)c(=O)n(C3CCCC3)c2n1 [Example 90, 8-Cyclopentyl-2-(4-dimethylamino-butylamino)-6-thiazol-2-ylmethyl-8H-pyrido[2,3-d]pyrimidin-7-one] | 122 to 124 °C
Cc1c(C(=O)c2ccccc2)c(=O)n(C2CCCC2)c2nc(Nc3ccc(N4CCNCC4)cc3)ncc12 [Example 32, 6-Benzoyl-8-cyclopentyl-5-methyl-2-(4-piperazin-1-yl-phenylamino)-8H-pyrido[2,3-d]pyrimidin-7-one] | 190 °C (dec.)
CC(C)c1ccc(Cc2cc3cnc(Nc4ccc(N5CCNCC5)cc4)nc3n(C3CCCC3)c2=O)cc1 [Example 72, 8-Cyclopentyl-6-(4-isopropyl-benzyl)-2-(4-piperazin-1-yl-phenylamino)-8H-pyrido[2,3-d]pyrimidin-7-one] | 140 to 145 °C
O=c1c(Cc2ccccc2)cc2cnc(NCc3ccccc3)nc2n1C1CCCC1 [Example 43, 6-Benzyl-2-benzylamino-8-cyclopentyl-8H-pyrido[2,3-d]pyrimidin-7-one] | 186 to 188 °C
Cc1cccc(Cc2cc3cnc(Nc4ccc(N5CCNCC5)cc4)nc3n(C3CCCC3)c2=O)c1 [Example 70, 8-Cyclopentyl-6-(3-methyl-benzyl)-2-(4-piperazin-1-yl-phenylamino)-8H-pyrido[2,3-d]pyrimidin-7-one] | 200 to 203 °C
